# Assays:
# Format in all cases: cell-based
# [1] = tested on: human articular chondrocytes; assay: Quantitative real-time PCR of mRNA levels in azaC-induced terminal differentiation culture model; settings: azaC group
# Procedure: Chondrocyte cultures were divided into 4 groups. […] Louis, Mo.) for 48 hours.
# [2] = tested on: human articular chondrocytes; assay: Dimethylmethylene blue (DMMB) assay of GAG levels in chondrocyte cultures; settings: azaC group, 3 and 7 days after azaC induction, P<0.01
# Procedure: (§1) Chondrocyte cultures were divided into 4 groups.
# Alginate beads were dissolved as described above and further digested by papain (300 μg/ml) at 60° C. for 18 hours. The levels of DNA and sulfated glycosaminoglycan (GAG) in the samples were quantified using Hoechst 33258 dye and 1,9-dimethylmethylene blue dye, respectively. A standard curve for the DMMB assay was generated using aqueous chondroitin sulfate C solution (Sigma-Aldrich, St. Louis, Mo.) at concentrations ranging from […].
# [3] = tested on: human articular chondrocytes; assay: TUNEL staining, rate of apoptosis in chondrocyte cultures; settings: azaC cultures, 14 days, P<0.01
# Procedure: as §1
# We measured apoptotic cells using the TUNEL (terminal deoxy-nucleotidyl transferase mediated dUTP nick end labeling) staining method using the In Situ Cell Death Detection Kit, TMR red (Roche, Mannheim, Germany). Following the manufacturer's guidelines, cells were fixed with 4% paraformaldehyde in phosphate buffered saline (PBS) at a cell density of 1×10^6/ml and incubated at room temperature for 10 minutes, and then settled on a slide by centrifugation at a speed of 2,000 rpm for 5 minutes using a cytospin (Cytospin 3; Shandon, Cheshire, UK). Slides were rinsed twice with PBS, and the cells were permeabilized by incubating in permeabilization solution (0.1% Triton X-100 in 0.1% sodium citrate) for 2 minutes on ice. The TUNEL reaction mixture containing terminal deoxynucleotidyl transferase and rhodamine (the labeling dye) was added to the slides and incubated at 37° C. in a humidified chamber in the dark for 60 minutes. The reaction was stopped by a blocking buffer (0.1% Triton X-100/0.5% bovine serum albumin in PBS). Cells were counterstained by 4′,6-diamidino-2-phenylindole (DAPI). The slides were observed under a fluorescence microscope with an excitation wavelength of 580 nm for rhodamine and 365 nm for DAPI. Cell nuclei were stained blue by DAPI, and only apoptotic cells were stained red by rhodamine. Stained cells were counted in 5 microscopic fields (1.566 mm^2/field) on each slide. Data were analyzed using Image-Pro Plus analysis software (Media Cybernetics, Silver Spring, Md.). The rate of apoptosis in chondrocytes was defined as the ratio of red-stained cells (apoptotic cells) to blue-stained cells (total cells).
# By using TUNEL staining, the rate of apoptosis in human articular chondrocyte cultures in the control, azaC, and azaC plus PTH groups were compared after 14 days of PTH(1-34) treatment (for the azaC plus PTH group).
# [4] = 7 and 10 days after azaC induction, P<0.01
# [5] = after 3 days of azaC induction, P<0.01
# [6] = after 7 days of azaC induction, P<0.05
structure (smiles),measurement,setting,value
"Nc1ncn([C@@H]2O[C@H](CO)[C@@H](O)[C@H]2O)c(=O)n1 [azaC, 5-azacytidine]",ALP mRNA level,[1]; [4],5.3-10.9 times that of control
same,Col10a1 mRNA level,[1]; [4],2.3-2.4 times that of control
same,Bax expression,"[1]; 14 days after azaC induction, P<0.01",2.1 times that of control
same,aggrecan mRNA level,"[1]; after 3 days of azaC induction (15 μg/ml, 48 hours), P<0.05",56 % of control
same,Col2a1 mRNA level,[1]; [5],46.3 % of control
same,IHH expression,[1]; [5],6.5 times that of control
same,Bcl-2 mRNA level,"[1]; after 3 days, P<0.05",3.2 times that of control
same,aggrecan mRNA level,"[1]; after 7 days of azaC induction, P<0.01",31 % of control
same,Col2a1 mRNA level,[1]; [6],64.8 % of control
same,IHH expression,[1]; [6],2.6 times that of control
same,IHH expression,"[1]; after 10 days of azaC induction, P<0.05",2.7 times that of control
same,Bcl-2 mRNA level,"[1]; after 10 days, P<0.01",4.7 times that of control
same,GAG levels versus control,[2],significantly lower
same,rate of apoptosis versus control cultures,[3],4.8 fold increase

# From US8586533B2, “Treatment of early-stage osteoarthritis” (Kaohsiung Medical University, priority 2008, dated 2013)
